Measured values published in ChEMBL document CHEMBL4304832, “Novel Pyrazole-Containing Compounds Active against Mycobacterium tuberculosis” (ACS Med Chem Lett, 2019).
Converted amounts (≈) assume the structure as drawn.

Assays:
[1] = test system: Mycobacterium tuberculosis; assay: Antitubercular activity against Mycobacterium tuberculosis H37Rv incubated for 6 days by resazurin dye based fluorescence assay; format: functional; details: 144 h
[2] = Cytotoxicity against human HepG2 cells incubated for 48 hrs by CellTiter Glo assay; format: cell-based
[3] = Protection Index, ratio of CC50 for human HepG2 cells to MIC for Mycobacterium tuberculosis H37Rv; format: toxicity; details: read-out: PI
[4] = Chromatographic lipophilicity, log D of compound in PBS ay pH 7.4 by UV-HPLC analysis; format: physicochemical; details: for chromatographic logD: PBS
Albumin = Albumin (Homo sapiens, UniProt P02768); assay: Binding affinity to HSA by HPLC analysis; format: ADME; details: isolated protein
Albumin, sequence (P02768 whole entry): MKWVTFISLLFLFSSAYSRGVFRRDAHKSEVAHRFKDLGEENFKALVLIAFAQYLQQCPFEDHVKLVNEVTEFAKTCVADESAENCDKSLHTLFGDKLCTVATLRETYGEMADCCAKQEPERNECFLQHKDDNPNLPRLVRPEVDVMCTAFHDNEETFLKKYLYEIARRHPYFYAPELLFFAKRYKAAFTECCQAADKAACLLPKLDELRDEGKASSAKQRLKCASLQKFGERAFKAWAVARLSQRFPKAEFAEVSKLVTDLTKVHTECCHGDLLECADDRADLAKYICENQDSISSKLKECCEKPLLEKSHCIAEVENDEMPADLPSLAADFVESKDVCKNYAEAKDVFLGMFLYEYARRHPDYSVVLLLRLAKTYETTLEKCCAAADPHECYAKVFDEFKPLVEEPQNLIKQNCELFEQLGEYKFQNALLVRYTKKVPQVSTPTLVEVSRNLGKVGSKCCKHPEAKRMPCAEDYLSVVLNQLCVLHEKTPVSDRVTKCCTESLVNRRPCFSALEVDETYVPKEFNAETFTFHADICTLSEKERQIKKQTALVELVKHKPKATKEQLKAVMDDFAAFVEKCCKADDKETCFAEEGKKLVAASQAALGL

[5] = Kinetic solubility of the compound in pH 7.4 phosphate buffered saline; format: physicochemical; details: read-out: Kinetic_solubility
[6] = molecular target: Voltage-gated inwardly rectifying potassium channel KCNH2 (Homo sapiens, UniProt Q12809); assay: Inhibition of human ERG
Voltage-gated inwardly rectifying potassium channel KCNH2, sequence (Q12809 whole entry): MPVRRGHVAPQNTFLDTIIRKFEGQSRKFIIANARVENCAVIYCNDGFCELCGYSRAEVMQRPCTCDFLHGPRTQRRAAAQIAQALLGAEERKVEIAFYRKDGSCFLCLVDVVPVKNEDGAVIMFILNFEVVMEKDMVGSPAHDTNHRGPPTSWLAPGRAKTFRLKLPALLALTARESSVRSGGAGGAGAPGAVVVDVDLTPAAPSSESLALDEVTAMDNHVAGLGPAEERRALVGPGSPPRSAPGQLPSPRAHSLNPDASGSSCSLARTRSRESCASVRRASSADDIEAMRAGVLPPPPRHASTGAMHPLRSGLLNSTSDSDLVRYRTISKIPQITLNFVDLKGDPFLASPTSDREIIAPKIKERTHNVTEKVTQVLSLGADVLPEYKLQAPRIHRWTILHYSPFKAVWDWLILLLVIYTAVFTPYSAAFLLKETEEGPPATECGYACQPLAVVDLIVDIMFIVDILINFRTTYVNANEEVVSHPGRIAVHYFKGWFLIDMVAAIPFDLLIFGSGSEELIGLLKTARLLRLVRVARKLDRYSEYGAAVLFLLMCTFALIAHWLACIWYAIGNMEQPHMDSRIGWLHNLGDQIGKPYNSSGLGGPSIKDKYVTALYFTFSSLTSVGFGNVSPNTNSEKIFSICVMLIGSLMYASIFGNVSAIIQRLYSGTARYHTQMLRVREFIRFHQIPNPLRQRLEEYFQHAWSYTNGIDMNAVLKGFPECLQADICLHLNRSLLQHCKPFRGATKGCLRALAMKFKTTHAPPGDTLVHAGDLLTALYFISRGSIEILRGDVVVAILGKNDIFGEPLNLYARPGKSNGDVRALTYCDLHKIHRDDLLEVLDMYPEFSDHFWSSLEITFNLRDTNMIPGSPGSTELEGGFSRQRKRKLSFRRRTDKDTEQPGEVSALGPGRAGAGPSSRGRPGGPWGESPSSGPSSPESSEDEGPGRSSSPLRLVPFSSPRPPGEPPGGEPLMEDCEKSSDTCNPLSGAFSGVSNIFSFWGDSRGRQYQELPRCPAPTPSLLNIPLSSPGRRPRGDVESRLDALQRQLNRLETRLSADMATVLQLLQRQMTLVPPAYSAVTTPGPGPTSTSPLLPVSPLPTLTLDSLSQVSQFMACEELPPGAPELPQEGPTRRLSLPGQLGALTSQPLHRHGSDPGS

[7] = Permeability of the compound in pH 7.05 phosphate buffer incubated for 3 hrs by artificial membrane permeability assay based LCMS analysis; format: ADME; details: PAMPA, read-out: permeability

Row | Compound | MIC [1] | CC50 at 48 h [2] | selectivity ratio [3] | chromatographic logD [4] | Activity (Albumin) | solubility kinetic [5] | IC50 [6] | logD ([4]; buffer) | Papp at 3 h [7]
1 | Fc1ccc(-n2nc(CN3CCOCC3)cc2-c2ccc(C(F)(F)F)cc2)cc1 | 20 µM (≈ 8.11 µg/mL) | 100 µM | 5 |  |  |  |  |  | 
2 | COC1CCN(Cc2cc(-c3ccc(C(C)C)cc3)n(C(C)C)n2)CC1 | 50 µM (≈ 17.8 µg/mL) |  |  |  |  |  |  |  | 
3 | NNC(=O)c1ccncc1 [ISONIAZID] | 1.8 µM (≈ 0.247 µg/mL) |  |  |  |  |  |  |  | 
4 | FC(F)(F)c1ccc(-c2cc(CN3CCCCC3)nn2C2CCCCC2)cc1 | 2.5 µM (≈ 0.979 µg/mL) | 50 µM | 20 |  |  |  |  |  | 
5 | CC(C)c1ccc(-c2cc(CN3CCOCC3)nn2C2CCCOC2)cc1 (stereo unspecified) | 2 µM (≈ 0.739 µg/mL) | > 100 µM | > 50 |  |  |  |  |  | 
6 | CC(C)c1ccc(-c2cc(CN3CCOCC3)nn2-c2ccc(F)cc2)cc1 | 5 µM (≈ 1.9 µg/mL) | 50.1 µM | 10 |  |  |  |  |  | 
7 | CC(C)(C)OC(=O)N1CCN(Cc2cc(-c3ccc(C(F)(F)F)cc3)n(C3CCCCC3)n2)CC1 | 2 µM (≈ 0.985 µg/mL) | > 100 µM | > 50 |  |  |  |  |  | 
8 | CC(C)c1ccc(-c2cc(CN3CCN(C)CC3)nn2-c2ccc(F)cc2)cc1 | 20 µM (≈ 7.85 µg/mL) | 12.6 µM | 0.6 |  |  |  |  |  | 
9 | CC(C)c1ccc(-c2cc(CN3CCN(C(=O)OC(C)(C)C)CC3)nn2-c2ccc(F)cc2)cc1 | 2 µM (≈ 0.957 µg/mL) | 80 µM | 40 |  |  |  |  |  | 
10 | Cc1c(CN2CCOCC2)nn(-c2ccc(C(C)C)cc2)c1-c1ccc(F)cc1 | 50 µM (≈ 19.7 µg/mL) | > 100 µM | > 2 |  |  |  |  |  | 
11 | Fc1ccc(-n2nc(CN3CCN(c4ccccn4)CC3)cc2-c2ccc(C(F)(F)F)cc2)cc1 | 2 µM (≈ 0.963 µg/mL) | 32 µM | 16 |  |  |  |  |  | 
12 | CC(C)c1ccc(-c2cc(CN3CCSCC3)nn2C2CCCCC2)cc1 | 1.3 µM (≈ 0.499 µg/mL) | 40 µM | 31 |  |  |  |  |  | 
13 | Fc1ccc(-n2nc(CN3CCSCC3)cc2-c2ccc(C(F)(F)F)cc2)cc1 | 4.7 µM (≈ 1.98 µg/mL) | 79.4 µM | 17 |  |  |  |  |  | 
14 | COC1CCN(Cc2nn(-c3ccc(C(C)C)cc3)c(-c3ccc(F)cc3)c2C)CC1 | 50 µM (≈ 21.1 µg/mL) |  |  |  |  |  |  |  | 
15 | COC1CCCN(Cc2cc(-c3ccc(C(C)C)cc3)n(-c3ccc(F)cc3)n2)C1 (stereo unspecified) | 2.4 µM (≈ 0.978 µg/mL) | 32 µM | 13 |  |  |  |  |  | 
16 | CC(C)n1nc(CN2CCOCC2)cc1-c1ccc(C(F)(F)F)cc1 | 23 µM (≈ 8.13 µg/mL) | > 100 µM | > 4 |  |  |  |  |  | 
17 | CC(C)c1ccc(-c2cc(CN3CCNCC3)nn2C2CCCCC2)cc1 | 20 µM (≈ 7.33 µg/mL) |  |  |  |  |  |  |  | 
18 | CC(C)c1ccc(-c2cc(CN3CCN(C(=O)OC(C)(C)C)CC3)nn2C2CCCCC2)cc1 | 1 µM (≈ 0.467 µg/mL) | 40 µM | 40 |  |  |  |  |  | 
19 | CC(C)c1ccc(-c2cc(CN3CCC(O)CC3)nn2C2CCCCC2)cc1 | 42 µM (≈ 16 µg/mL) | 63 µM | 1.5 |  |  |  |  |  | 
20 | COC1CCN(Cc2cc(C)n(C3CCCCC3)n2)CC1 | 50 µM (≈ 14.6 µg/mL) | > 100 µM | > 2 |  |  |  |  |  | 
21 | C[Si]1(C)CCN(Cc2cc(-c3ccc(C(F)(F)F)cc3)n(-c3ccc(F)cc3)n2)CC1 | 0.02 µM (≈ 0.00895 µg/mL) | 16 µM |  | 8.13 | 96.65% | 53 µM (≈ 23.7 µg/mL) |  |  | 
22 | FC(F)(F)c1ccc(-c2cc(CN3CCN(c4ccccn4)CC3)nn2C2CCCCC2)cc1 | 1 µM (≈ 0.47 µg/mL) | 50 µM | 50 |  |  |  |  |  | 
23 | Cc1ccc(-c2cc(CN3CCOCC3)nn2C2CCCCC2)cn1 | 50 µM (≈ 17 µg/mL) | > 100 µM | > 2 |  |  |  |  |  | 

Row | Compound | MIC [1] | CC50 at 48 h [2] | selectivity ratio [3] | chromatographic logD [4] | Activity (Albumin) | solubility kinetic [5] | IC50 [6] | logD ([4]; buffer) | Papp at 3 h [7]
24 | CC(C)c1ccc(-c2cc(CN3CC[Si](C)(C)CC3)nn2-c2ccc(F)cc2)cc1 | 0.00925 µM (≈ 0.0039 µg/mL) | 12.6 µM | 1360 | 8.82 | 97.49% | 41 µM (≈ 17.3 µg/mL) | 2 µM |  | 
25 | CC(C)c1ccc(-c2cc(CN3CCOCC3)nn2C(C)C)cc1 | 1.75 µM (≈ 0.573 µg/mL) | 79.4 µM | 45 |  |  |  |  |  | 
26 | CC(C)c1ccc(-c2cc(CN3CCN(c4ccccn4)CC3)nn2C2CCCCC2)cc1 | 0.5 µM (≈ 0.222 µg/mL) | 40 µM | 80 |  | 98.41% | 15 µM (≈ 6.65 µg/mL) | > 50 µM | 9.83 | < 0.3 ×10⁻⁶ cm/s
27 | CC(C)c1ccc(-c2cc(CN3CCN(C)CC3)nn2C2CCCCC2)cc1 | 21 µM (≈ 7.99 µg/mL) | 10 µM | 0.5 |  |  |  |  |  | 
28 | FC(F)(F)c1ccc(-c2cc(CN3CCSCC3)nn2C2CCCCC2)cc1 | 1.2 µM (≈ 0.491 µg/mL) | 63.1 µM | 53 |  |  |  |  |  | 
29 | CC(C)c1ccc(-c2cc(CN3CCCC(O)C3)nn2C(C)C)cc1 (stereo unspecified) | 1 µM (≈ 0.341 µg/mL) | 50 µM | 50 |  |  |  |  |  | 
30 | Cc1cc(CN2CCOCC2)nn1C1CCCCC1 | 2.5 µM (≈ 0.658 µg/mL) | 50 µM | 20 |  |  |  |  |  | 
31 | COC1CCN(Cc2cc(-c3ccc(C(C)C)cc3)n(C3CCCOC3)n2)CC1 (stereo unspecified) | 2.5 µM (≈ 0.994 µg/mL) | 50 µM | 20 |  |  |  |  |  | 
32 | Cc1c(CN2CCOCC2)nc(-c2ccc(C(C)C)cc2)n1-c1ccc(F)cc1 | 40 µM (≈ 15.7 µg/mL) | 50.1 µM | 1.25 |  |  |  |  |  | 
33 | COC1CCN(Cc2cc(-c3ccc(C(C)C)cc3)n(C3CCCCC3)n2)CC1 | 0.6 µM (≈ 0.237 µg/mL) | 12.6 µM | 21 |  |  |  |  |  | 
34 | COC1CCN(Cc2cc(-c3ccc(C(F)(F)F)cc3)n(C3CCCCC3)n2)CC1 | 1.2 µM (≈ 0.506 µg/mL) | 31.6 µM | 26 |  |  |  |  |  | 
35 | FC(F)(F)c1ccc(-c2cc(CN3CCOCC3)nn2C2CCCCC2)cc1 | 2.5 µM (≈ 0.984 µg/mL) | 50 µM | 20 |  |  |  |  |  | 
36 | CC(C)c1ccc(-c2cc(CN3CCCC(O)C3)nn2-c2ccc(F)cc2)cc1 (stereo unspecified) | 20 µM (≈ 7.87 µg/mL) | 25.1 µM | 1.25 |  |  |  |  |  | 
37 | CC(C)c1ccc(-c2cc(CN3CCN(c4ccccn4)CC3)nn2-c2ccc(F)cc2)cc1 | 0.5 µM (≈ 0.228 µg/mL) | 64 µM | 128 | 8.76 | 98.45% | 6 µM (≈ 2.73 µg/mL) | 25.1 µM |  | < 3 ×10⁻⁶ cm/s
38 | CC(C)(C)OC(=O)N1CCN(Cc2cc(-c3ccc(C(F)(F)F)cc3)n(-c3ccc(F)cc3)n2)CC1 | 4 µM (≈ 2.02 µg/mL) | > 100 µM | > 25 |  |  |  |  |  | 
39 | CC(C)c1ccc(-c2cc(CN3CC[Si](C)(C)CC3)nn2C2CCCCC2)cc1 | 0.04 µM (≈ 0.0164 µg/mL) | 12.6 µM | 315 |  | 97.35% | 46 µM (≈ 18.8 µg/mL) | 8 µM |  | 
40 | COC1CCCN(Cc2cc(-c3ccc(C(C)C)cc3)n(C3CCCCC3)n2)C1 (stereo unspecified) | 2.5 µM (≈ 0.989 µg/mL) | 20 µM | 8 |  |  |  |  |  | 
41 | Fc1ccc(-n2nc(CN3CCCCC3)cc2-c2ccc(C(F)(F)F)cc2)cc1 | 2.5 µM (≈ 1.01 µg/mL) | 40 µM | 16 |  |  |  |  |  | 
42 | CC(C)c1ccc(-c2cc(CN3CCC(O)CC3)nn2-c2ccc(F)cc2)cc1 | 10 µM (≈ 3.94 µg/mL) | 20 µM | 2 |  |  |  |  |  | 
43 | C[Si]1(C)CCN(Cc2cc(-c3ccc(C(F)(F)F)cc3)n(C3CCCCC3)n2)CC1 | 0.07 µM (≈ 0.0305 µg/mL) | 12.6 µM | 180 | 8.49 | 96.32% | 69 µM (≈ 30.1 µg/mL) | 2.5 µM |  | 
44 | COC1CCN(Cc2cc(-c3ccc(C(F)(F)F)cc3)n(C(C)C)n2)CC1 | 2.5 µM (≈ 0.954 µg/mL) | 79.4 µM | 32 |  |  |  |  |  | 
45 | COC1CCN(Cc2cc(-c3ccc(C)nc3)n(C3CCCCC3)n2)CC1 | 50 µM (≈ 18.4 µg/mL) | > 100 µM | > 2 |  |  |  |  |  | 
46 | COC1CCN(Cc2nc(-c3ccc(C(C)C)cc3)n(-c3ccc(F)cc3)c2C)CC1 | 40 µM (≈ 16.9 µg/mL) |  |  |  |  |  |  |  | 
